The source of these data is paper PMC6651387, “Fine-Tuning the Activation Mode of an 1,3-Indandione-Based Ruthenium(II)-Cymene Half-Sandwich Complex by Variation of Its Leaving Group” (Molecules, 2019).

The nature of series [1]: pH-dependent stability by UV-VIS spectroscopy. The class given is physicochemical. Particulars: for precipitation at pH 7.4: 40 µM, PBS, 1% DMSO, loss of absorbance without change in spectrum. An excerpt:
The stability under physiological conditions is a vital part of the process of developing a new drug. Additionally, N-donor leaving groups equip piano-stool complexes with an elegant pH-switch. Theoretically, they can be protonated at lower pH values, as found in the extracellular matrix of the tumor tissue, and are therefore cleaved off. The resulting aqua complex is highly reactive and able to interact with biological targets. To put this theory to the test, the stability of complexes 1a–g was investigated at different pH values, i.e., 5.5, 6.5, 7.4, and 8.5. Spectra were recorded over a period of 24 h, with 40 µM solutions (1% DMSO in water) in the range of 250–700 nm. The chosen pH values represented the physiologically relevant conditions; a pH value of 8.5 is the highest pH found in the human body (in the duodenum), a pH value of 7.4 is the average pH of human blood, and a pH value of 6.5 is the pH found in the extracellular matrix of solid tumors.
Stability measurements were performed on a Lambda 35 UV/VIS spectrometer (Perkin Elmer, Boston, MA, USA). Samples of complexes 1a–g: 40 µM in PBS (pH 7.4) and isotonic saline phosphate buffer with 0.9% sodium chloride (pH 8.5), diluted isotonic acetic acid (pH 5.5), and acetate buffer (pH 6.5) with 1% DMSO. UV-VIS spectra were recorded hourly for 24 h at 37 °C. Temperature control was maintained by a PTP-6 Peltier System (Perkin Elmer, Boston, MA, USA).

Series [2] can be described thus: Lipophilicity by RP-UHPLC capacity factors (logkw, Φ0). The class given is physicochemical. To be noted: for Intercept logkw: RP-UHPLC, MeOH/0.1% formic acid in water, 25 °C, logk extrapolated to 100% water; for Φ0: percentage of methanol in the eluent at which logk is zero, Φ0 = −logkw/S; for Slope S: slope of logk against % organic eluent (MeOH). An excerpt:
It stands to reason that the higher the lipophilicity, the higher the cell accumulation; as far as passive diffusion is concerned, the higher efficiency with which normal cell function is compromised. As a consequence, lipophilicity is an important factor in drug development, described by the partition coefficient logP, which is routinely determined by the distribution of a compound in 1-octanol/water. However, 1-octanol, a solvent said to closely mimic the solubilizing behavior of cell membranes, forms emulsions with water. Additionally, the shake-flask method, seemingly easy, requires long sample preparation, has a low sample throughput, and lacks reproducibility, as it hinges on exact temperature control and consistent equilibration time allotted for every analyte. The time-consuming nature of this method may also lead to decomposition of the analyte. A concentration-, flow rate-, and column length-independent method is the determination of the capacity factor (k) via HPLC. The capacity factor is a measure for the equilibrium concentration between a polar phase (eluent) and an apolar phase (C18 column coating) and higher resemblance to the partition coefficient in […]. […] The percentage of methanol in the eluent at which logk is equal to zero is Φ0 [27, 28, 29].
The capacity factors k were determined with the use of an RP-UHPLC. The necessary chromatograms were recorded with a Dionex UltiMate 3000 RS UHPLC system (Thermo Fisher Scientific, Bedford, MA, USA) controlled by the Dionex Chromeleon 7.2 software. […] The capacity factors were then calculated as logk = log[(tR − t0)/t0], where tR and t0 are the retention times of the analyte and the dead time marker, respectively, at the respective MeOH:0.1% FA in water ratio. Every retention time was determined in isocratic mode for the different eluent ratios to obtain capacity factors in the linear range (−0.5 ≤ logk ≤ 1.5) in triplicate. A plot of logk against the % of the organic eluent yielded logkw (intercept) and S (slope). Φ0, the factor most closely resembling logP, was then determined as follows: Φ0 = −logkw/S [28].

A short description of series [3]: Solubility in minimal essential medium (MEM, 1% DMSO). On the procedure:
Melting points were determined with a Büchi Melting Point M-560. The solubility was determined by dissolving the compound in DMSO and subsequent dilution to a final concentration of 1% DMSO/MEM solution (minimal essential medium) and 1% DMSO/MSP solution (medium with serum proteins). The highest concentrated dilution, where no precipitation of the compound occurred, was the determined solubility. The NMR spectra were recorded at 25 °C using a Bruker FT-NMR spectrometer Avance III^TM 500 MHz. ^1H-NMR spectra were measured at 500.10 MHz and ^13C-NMR spectra were recorded at 125.75 MHz in deuterated methanol (CD3OD). 2D-NMR spectra were measured using a gradient-enhanced mode. CHN elemental analyses were performed with a Eurovector EA3000 Elemental Analyzer in the microanalytical laboratory of the University of Vienna. Single crystals of complexes 1b–1f suitable for X-ray diffraction analysis were grown by precipitation from DCM/Et2O at 4 °C. The X-ray intensity data were measured on Bruker D8 Venture or X8 APEX II diffractometer equipped with multilayer monochromators, Mo K/α INCOATEC microfocus sealed tubes and Kryoflex cooling devices (Bruker, Karlsruhe, Germany). The structures were solved by direct methods and refined by full-matrix least-squares techniques. Non-hydrogen atoms were refined with anisotropic displacement parameters. Hydrogen atoms were inserted at calculated positions and refined with a riding model separately as rotating groups. The following software was used: Bruker SAINT software package using a narrow-frame algorithm for frame integration, SADABS [33] for absorption correction, OLEX2 [34] for structure solution, refinement, molecular diagrams and graphical user-interface, Shelxle for refinement and graphical user-interface, SHELXS-2013 [36] for structure solution, SHELXL-2013 [37] for refinement, and Platon for symmetry check. Electronspray ionization mass spectra were recorded on a Bruker AmaZon SL ion trap mass spectrometer (Bruker Daltonics GmbH, Hamburg, Germany).

Where “and” joins values, the source holds several entries; their conditions need not be identical. Equal values may be shown once.

Regarding `Cc1ccc(C(C)C)cc1.O=C1C2=C(NCc3ccccc3)[O][Ru-]([Cl])[O+]=C2c2ccccc21` [1a], the “hydrolysis in aqueous systems” value in series [1] (aquation to the aqua complex) is on record as “hydrolyzed quickly to the more reactive aqua complex”. Further, in series [2], the Intercept logkw is given as 5.41, the Φ0 is given as 63.19 and the “Slope S” value is −0.0855.

One may read the solubility as how much of the substance goes into solution per volume. Read a high solubility as a readily soluble substance. `Cc1ccc(C(C)C)cc1.Cn1ccnc1.F[P-](F)(F)(F)(F)F.O=C1C(=C(NCc2ccccc2)[O][Ru+])C(=O)c2ccccc21` [1b]: in series [3], the solubility was 0.30 mg/mL and 0.40 mM. Besides, in series [2], the Intercept logkw is 5.49, the Φ0 was 61.84 and the “Slope S” value is −0.0888.

In the case of `Cc1ccc(C(C)C)cc1.F[P-](F)(F)(F)(F)F.O=C1C2=C(NCc3ccccc3)[O][Ru-]([n+]3ccc[nH]3)[O+]=C2c2ccccc21` [1c], in series [3], the solubility is 0.28 mg/mL and 0.39 mM. Further, in series [2], the Intercept logkw is reported as 5.36, the Φ0 stood at 63.72 and the “Slope S” value is listed as −0.0841.

Turning to `Cc1ccc(C(C)C)cc1.F[P-](F)(F)(F)(F)F.O=C1C2=C(NCc3ccccc3)[O][Ru-]([n+]3c[nH]c4ccccc43)[O+]=C2c2ccccc21` [1d], the “precipitation at pH 7.4” value in series [1] is reported as “precipitated to some extent”. Also, the solubility in series [3] was 0.29 mg/mL and 0.37 mM. In series [2], the Intercept logkw is reported as 5.55, the Φ0 turned out to be 65.87 and the “Slope S” value is on record as −0.0843.

With `Cc1ccc(C(C)C)cc1.F[P-](F)(F)(F)(F)F.O=C1C2=C(NCc3ccccc3)[O][Ru-]([n+]3cc4ccccc4[nH]3)[O+]=C2c2ccccc21` [1e], the “precipitation at pH 7.4” value in series [1] is “precipitated to some extent”. Moreover, the solubility in series [3] was 0.06 mg/mL and 0.08 mM. Also, in series [2], the Intercept logkw is on record as 5.94, the Φ0 stood at 68.88 and the “Slope S” value is reported as −0.0863.

Consider `Cc1ccc(C(C)C)cc1.F[P-](F)(F)(F)(F)F.O=C1C2=C(NCc3ccccc3)[O][Ru-]([NH+]3CCOCC3)[O+]=C2c2ccccc21` [1g], for which, in series [3], the solubility was 0.22 mg/mL and 0.29 mM. In addition, in series [2], the Intercept logkw is on record as 5.14, the Φ0 was 59.73 and the “Slope S” value is listed as “–0.0860”.
